ChEMBL document CHEMBL3046212, “Synthesis and immunostimulating activity of C-pseudonucleosides containing N-phenyl thiazolidin-4-one” (2013)

Key:
Format in all cases: functional, Splenocyte
[1] = Immunostimulatory activity in Balb/c mouse splenocytes assessed as increase in conA-induced T cell proliferation at 25 uM after 72 hrs by MTT assay relative to control
[2] = Immunostimulatory activity in Balb/c mouse splenocytes assessed as increase in conA-induced T cell proliferation at 50 uM after 72 hrs by MTT assay relative to control
[3] = Immunostimulatory activity in Balb/c mouse splenocytes assessed as increase in conA-induced T cell proliferation at 5 uM after 72 hrs by MTT assay relative to control
[4] = Immunostimulatory activity in Balb/c mouse splenocytes assessed as increase in conA-induced T cell proliferation at 10 uM after 72 hrs by MTT assay relative to control
[5] = Immunostimulatory activity in Balb/c mouse splenocytes assessed as increase in conA-induced T cell proliferation at 100 uM after 72 hrs by MTT assay relative to control

## COc1cccc(N2C(=O)CS[C@@H]2[C@H]2O[C@H](CO)[C@@H](O)[C@@H]2O)c1
[1]
  Activity: 129.3%
[2]
  Activity: 158.7%
[3]
  Activity: 17.6%
[4]
  Activity: 165.1%
[5]
  Activity: 125.4%

## Cc1cccc(N2C(=O)CS[C@H]2[C@H]2O[C@H](CO)[C@@H](O)[C@@H]2O)c1
[1]
  Activity: 152.4%
[2]
  Activity: 158.7%
[3]
  Activity: 149.2%
[4]
  Activity: 142.1%
[5]
  Activity: 169.8%

## Cc1cccc(N2C(=O)CS[C@@H]2[C@H]2O[C@H](CO)[C@@H](O)[C@@H]2O)c1
[1]
  Activity: 157.9%
[2]
  Activity: 134.9%
[3]
  Activity: 163.5%
[4]
  Activity: 155.6%
[5]
  Activity: 160.3%

## COc1cccc(N2C(=O)CS[C@H]2[C@H]2O[C@H](CO)[C@@H](O)[C@@H]2O)c1
[1]
  Activity: 156.3%
[2]
  Activity: 147.6%
[3]
  Activity: 146%
[4]
  Activity: 134.1%
[5]
  Activity: 162.7%

## CCOC(=O)c1ccc(N2C(=O)CS[C@H]2[C@H]2O[C@H](CO)[C@@H](O)[C@@H]2O)cc1
[1]
  Activity: 161.9%
[2]
  Activity: 136.5%
[3]
  Activity: 153.2%
[4]
  Activity: 136.5%
[5]
  Activity: 142.9%

## CCOC(=O)c1ccc(N2C(=O)CS[C@@H]2[C@H]2O[C@H](CO)[C@@H](O)[C@@H]2O)cc1
[1]
  Activity: 126.2%
[2]
  Activity: 206.3%
[3]
  Activity: 132.5%
[4]
  Activity: 177%
[5]
  Activity: 180.2%

## O=C1CS[C@H]([C@H]2O[C@H](CO)[C@@H](O)[C@@H]2O)N1c1ccc(Cl)cc1
[1]
  Activity: 87.6%
[2]
  Activity: 30.9%
[3]
  Activity: 101.6%
[4]
  Activity: 91.5%
[5]
  Activity: 107.1%

## Cc1ccc(N2C(=O)CS[C@H]2[C@H]2O[C@H](CO)[C@@H](O)[C@@H]2O)cc1
[1]
  Activity: 86.1%
[2]
  Activity: 96.3%
[3]
  Activity: 84.9%
[4]
  Activity: 83.7%
[5]
  Activity: 95.2%

## Cc1ccc(N2C(=O)CS[C@@H]2[C@H]2O[C@H](CO)[C@@H](O)[C@@H]2O)cc1
[1]
  Activity: 95.6%
[2]
  Activity: 104%
[3]
  Activity: 91.2%
[4]
  Activity: 110%
[5]
  Activity: 105.6%

## COc1ccc(N2C(=O)CS[C@H]2[C@H]2O[C@H](CO)[C@@H](O)[C@@H]2O)cc1
[1]
  Activity: 106.8%
[2]
  Activity: 103.2%
[4]
  Activity: 106.8%
[5]
  Activity: 99.2%

## COc1ccc(N2C(=O)CS[C@@H]2[C@H]2O[C@H](CO)[C@@H](O)[C@@H]2O)cc1
[1]
  Activity: 97.2%
[2]
  Activity: 93.6%
[3]
  Activity: 108.8%
[4]
  Activity: 105.2%
[5]
  Activity: 99.6%

## O=C1CS[C@@H]([C@H]2O[C@H](CO)[C@@H](O)[C@@H]2O)N1c1cccc(Cl)c1
[1]
  Activity: 130.3%
[2]
  Activity: 121.5%
[3]
  Activity: 139.7%
[4]
  Activity: 138.2%
[5]
  Activity: 126%

## O=C1CS[C@H]([C@H]2O[C@H](CO)[C@@H](O)[C@@H]2O)N1c1cccc(Cl)c1
[1]
  Activity: 158.7%
[2]
  Activity: 161.1%
[3]
  Activity: 162.2%
[4]
  Activity: 155.6%
[5]
  Activity: 144.4%

## O=C1CS[C@@H]([C@H]2O[C@H](CO)[C@@H](O)[C@@H]2O)N1c1ccc(Cl)cc1
[1]
  Activity: 102.2%
[2]
  Activity: 112.3%
[3]
  Activity: 100%
[4]
  Activity: 101.2%
[5]
  Activity: 112.4%
